The text below walks through data of patent USRE35517E, “Method, compositions, and compounds for modulating brain excitability” (priority 1992, dated 1997).

Data set [1] has as its system GABA/benzodiazepine receptor-chloride ionopore complex (GBR complex). The data set is described as follows: Dissociation kinetics of [35S]TBPS in rat cerebral cortical membranes. Type of data set: binding. The settings on record: for biphasic dissociation mechanism of [35S]TBPS: FIGS. 2A, 2B, pentobarbital 30 micromolar, alphaxalone 300 nanomolar, 5-alpha-pregnan-3-alpha-hydroxy-20-one 20 nanomolar; for t1/2, R (rapidly dissociating component) / t1/2, S (slowly dissociating component): 30 nM Na pentobarbital; for Total percentage of specific sites, R: rapidly dissociating component, Na pentobarbital (**P < 0.01 vs control); for Total percentage of specific sites, S: slowly dissociating component, Na pentobarbital (*P < 0.05 vs control). The procedure:
An assay was performed to determine the effect of pentobarbital on the dissociation kinetics of [^35 S]TBPS in rat cerebral cortical membranes. This assay was performed in accordance with the procedures outlined above. […] Dissociation of bound [^35 ]TBPS was initiated by 2 micromolar TBPS in all cases.

Another data set deals with metrazol. More on the design: key: NP: no protection. The settings on record: mice, cited from earlier work.
For data set [2], the system named is (+)bicuculline-induced seizures. More on the design: key: NP: no protection. The settings on record: mice, cited from earlier work.
The test system of the next data set is picrotoxin. More on the design: key: NP: no protection. The settings on record: mice, cited from earlier work.
A further data set has as its system strychnine. More on the design: key to ED50 STR (strychnine): NP: no protection. The settings on record: mice, cited from earlier work.
Another data set has as its system maximal electroshock. More on the design: unit not given here. The settings on record: mice, cited from earlier work.
Data set [3] relates to rotorod performance. More on the design: unit not given beside the values. The conditions noted are these: mice; data from Swinyard & Woodhead 1982; cited from earlier work.
In data set [4] the test system is GABA/benzodiazepine receptor-chloride ionopore complex (GBR complex). Nature of the data set: Modulation of [35S]TBPS binding in rat cerebral cortex P2 homogenate. More on the design: species or system rat (male Sprague-Dawley). The conditions noted are these: for +5 μM IC50: inhibition of 2 nM [35S]TBPS binding, +5 μM (GABA); for +5 μM IC50 / CONTROL IC50: 25° C., 90 minutes; for CONTROL IC50: inhibition of basal 2 nM [35S]TBPS binding. The procedure: These procedures were performed as follows:

Another data set relates to BZ receptor. The data set is described as follows: Modulation of [3H]flunitrazepam binding in rat hippocampal homogenates, with pentobarbital (FIG. 3). The settings on record: 1.0 millimolar pentobarbital, 0.25 nM [3H]FLU, absence of GABA.
The test system of another data set is convulsions. Nature of the data set: Anticonvulsant screen (chemical convulsants and maximal electroshock), overall. It counts as in vivo, mice. The conditions noted are these: in comparison to clinically useful anticonvulsants, benzodiazepines. Here is the method:
Experiments were also performed to determine the physiological relevance of these interactions by measuring the ability of the compounds of and used in the invention to modulate TBPS-induced convulsions in Swiss-Webster mice. […] The time to onset of myoclonus (presence of forelimb clonic activity) induced by TBPS was determined by observing each mouse of a period of 45 minutes. Significant differences between the time to onset in control mice vs. steroid-treated mice were determined by Student's t-test. […] The number of animals with tonic and/or clonic convulsions was recorded. In the maximal electroshock test, 50 mA of current at 60 Hz was delivered through corneal electrodes for 200 msec. […] The ED50 (the dose at which the half-maximal effect occurs) dose was determined for each screen.
A general note: The maximal electroshock test induces tonic seizures with an electrical stimulus.

A further data set is described as follows: Acute lethality (LD50). The settings on record: mice; from therapeutic index.
For data set [5], the system named is rotorod performance. Nature of the data set: Rotorod test (sedative potential). More on the design: ED50 RR (rotorod): unit not given beside the values. The settings on record: mice.
Data set [6] concerns premenstrual syndrome, PND, catamenial epilepsy. The conditions noted are these: patients, cited from earlier work.
Where [7] appears, read: [35S]TBPS dissociation, rat cortex, 300 nM alphaxalone, 20 nM a-OH-DHP.
Where [8] appears, read: [35S]TBPS dissociation, rat cortex, Na pentobarbital, 300 nM alphaxalone, 20 nM a-OH-DHP.
[9] abbreviates: 300 nM alphaxalone, 20 nM a-OH-DHP.
Setting [10] is: data from Swinyard & Woodhead 1982, NP = no protection.
The mark [11] stands for this setting: data from Swinyard & Woodhead 1982.
Where [12] appears, read: convulsant administered i.v., data from Worms et al. 1982.

The structures appear in SMILES notation. Read-outs that look alike come from different tables or passages of the source.

With `CCCC(C)C1(CC)C(=O)NC(=O)NC1=O` (stereo not shown) [Pentobarbital], the “biphasic dissociation mechanism of [35S]TBPS” value in [1] is “induces a biphasic dissociation mechanism”. Also, in data set [1] (setting [7]), the “t1/2, R (rapidly dissociating component)” value turned out to be 4.4 ± 0.3 and the “t1/2, S (slowly dissociating component)” value is recorded as 38 ± 3. In data set [1] (setting [8]), the “k-1, R (rapidly dissociating component)” value was 0.158 ± 0.013 min⁻¹ and the “k-1, S (slowly dissociating component)” value worked out at 0.0186 ± 0.0015 min⁻¹. In [1] (setting [9]), the “Total percentage of specific sites, R” value turned out to be 48 ± 6% and the “Total percentage of specific sites, S” value worked out at 61 ± 6%.

Regarding `O=C1NC(=O)C(c2ccccc2)(c2ccccc2)N1` [Phenytoin], in the data set with metrazol (setting [10]), the “ED50 MTZ (metrazol)” value is “NP”. Besides, the “ED50 BIC (bicuculline)” value in data set [2] (setting [10]) is “NP”. For the same compound, the “ED50 PICRO (picrotoxin)” value in the data set on picrotoxin (setting [10]) is given as “NP”. For the same compound, the “Maximum protection (strychnine)” value in the data set with strychnine (at 55-100 mg/kg, data from Swinyard & Woodhead 1982) is recorded as 50%.

For the compound `CCC1(c2ccccc2)C(=O)NC(=O)NC1=O` [Phenobarbital], the “ED50 MES (maximal electroshock)” value in the data set with maximal electroshock (setting [11]) was 22. Besides, the “ED50 MTZ (metrazol)” value with metrazol (setting [10]) is listed as 13. In addition, in data set [2] (setting [10]), the “ED50 BIC (bicuculline)” value was 38. Further, the “ED50 PICRO (picrotoxin)” value in the data set on picrotoxin (setting [10]) was 28. For the same compound, the “ED50 STR (strychnine)” value with strychnine (setting [10]) is 95. Further, the “ED50 RR (rotorod)” value in the data set with rotorod performance [3] is 69.

As to `CCCC(CCC)C(=O)O` [Valproate], in the data set on maximal electroshock (setting [11]), the “ED50 MES (maximal electroshock)” value is listed as 272. The “ED50 MTZ (metrazol)” value in the data set on metrazol (setting [10]) is 149. Besides, in [2] (setting [10]), the “ED50 BIC (bicuculline)” value is reported as 360. Besides, the “ED50 PICRO (picrotoxin)” value with picrotoxin (setting [10]) is given as 387. Further, the “ED50 STR (strychnine)” value in the data set on strychnine (setting [10]) is 293.

`O=C1CN=C(c2ccccc2Cl)c2cc([N+](=O)[O-])ccc2N1` [Clonazepam]: in the data set with maximal electroshock (setting [11]), the “ED50 MES (maximal electroshock)” value was 93. Also, the “ED50 MTZ (metrazol)” value in the data set with metrazol (setting [10]) is 0.009. The “ED50 BIC (bicuculline)” value in [2] (setting [10]) is 0.0086. Further, the “ED50 PICRO (picrotoxin)” value in the data set on picrotoxin (setting [10]) was 0.043. In addition, the “ED50 STR (strychnine)” value with strychnine (setting [10]) is “NP”. Moreover, in the data set with rotorod performance [3], the “ED50 RR (rotorod)” value is 0.184.

Take `C[C@]12CC[C@@H]3c4ccc(O)cc4CC[C@H]3[C@@H]1CC[C@@H]2O` [17β-ESTRADIOL]: in [4], the “+5 μM IC50” value is “INACTIVE” and the “CONTROL IC50” value is on record as “INACTIVE”.

Take `CC(C)CCC[C@@H](C)[C@H]1CC[C@H]2[C@@H]3CC=C4C[C@@H](O)CC[C@]4(C)[C@H]3CC[C@]12C` [CHOLESTEROL]: in data set [4], the “+5 μM IC50” value is “INACTIVE” and the “CONTROL IC50” value is given as “INACTIVE”.

`CC(=O)[C@H]1CC[C@H]2[C@@H]3CC[C@H]4C[C@@H](O)CC[C@]4(C)[C@H]3CC[C@]12C` [ALLOPREGNANLONE, 5α-PREGNAN-3β-OL- 20-ONE]: the “CONTROL IC50” value in data set [4] is listed as “INACTIVE”.

`CC(=O)[C@H]1CC[C@H]2[C@@H]3CC=C4C[C@@H](O)CC[C@]4(C)[C@H]3CC[C@]12C` [PREGNENOLONE, 5α-PREGNEN-3β-OL- 20-ONE]: the “CONTROL IC50” value in data set [4] is reported as “INACTIVE”.

As for `C[C@]12C[C@H](O)[C@H]3[C@@H](CCC4=CC(=O)CC[C@@]43C)[C@@H]1CC[C@@H]2C(=O)CO` [CORTICOSTERONE, 4-PREGNEN-11β,21- DIOL-3,20-DIONE], in data set [4], the “CONTROL IC50” value is “INACTIVE”.

On to `CC(=O)[C@H]1CC[C@H]2[C@@H]3CC[C@H]4C[C@H](O)CC[C@]4(C)[C@H]3CC[C@]12C` [3α-OH-DHP, 3α-hydroxy-5α-pregnan-20-one], for which the “biphasic dissociation mechanism of [35S]TBPS” value in [1] is on record as “absent”. Also, in data set [1] (setting [7]), the “t1/2, R (rapidly dissociating component)” value was 6.4 ± 1 and the “t1/2, S (slowly dissociating component)” value is 76 ± 11. Moreover, the “k-1, S (slowly dissociating component)” value in data set [1] (setting [8]) amounted to 0.011 ± 0.002 min⁻¹. Moreover, in data set [1] (setting [9]), the “Total percentage of specific sites, R” value is listed as 35 ± 3% and the “Total percentage of specific sites, S” value is 68 ± 3%. Moreover, in data set [1] (rat cerebral cortex), the “influence on the dissociation kinetics of [35S]TBPS binding” value is recorded as “do not influence the dissociation kinetics”. Further, the “interaction with pentobarbital in the enhancement of [3H]flunitrazepam binding” value with BZ receptor was “does not interact with pentobarbital”. In the data set on convulsions, the “anticonvulsant activity / profile” value is reported as “highly effective with a profile similar to that of the benzodiazepine clonazepam”. Moreover, the “toxicity, in words” value in the data set “Acute lethality (LD50)” is listed as “very low toxicity”. In the data set on rotorod performance [5] (10 minutes after injection), the “ED50 RR (rotorod)” value was 40-100. In addition, in the data set on rotorod performance [5] (rotorod ED50 compared with (+)bicuculline ED50), the “sedative liability at anticonvulsant doses” value was “low”.

For `NC(=O)CCC/N=C(\c1ccc(Cl)cc1)c1cc(F)ccc1O` [Progabide], the “ED50 MES (maximal electroshock)” value with maximal electroshock (data from Worms et al. 1982) was 75. For the same compound, the “ED50 MTZ (metrazol)” value in the data set with metrazol (setting [12]) is given as 30. In data set [2] (setting [12]), the “ED50 BIC (bicuculline)” value is given as 30. The “ED50 PICRO (picrotoxin)” value in the data set with picrotoxin (setting [12]) is on record as 105. Also, the “ED50 STR (strychnine)” value with strychnine (setting [12]) is on record as 75.

Consider `CC(=O)[C@H]1CC[C@H]2[C@@H]3CCC4=CC(=O)CC[C@]4(C)[C@H]3CC[C@]12C` [PROGESTERONE], for which the “potency (and efficacy) at the GBR complex” value in data set [4] (in vitro, [35S]TBPS binding) is listed as “very low potency”. Besides, in data set [6] (literature), the “effectiveness in the treatment of PMS, PND and catamenial epilepsy” value is “not consistently effective”. For the same compound, in [6] (Maddocks et al., Dennerstein et al. 1986), the “dose-response relationship in the treatment of PMS” value was “no dose-response relationship exists”.
